From patent US12459951B2, “Compounds that interact with RAS superfamily proteins for treatment of cancers, inflammatory diseases, rasopathies, and fibrotic disease” (SHY Therapeutics, LLC, priority 2022, dated 2025)

Columns and labels:
Rac-1 = biological target: T1, Rac-1 (Homo sapiens, UniProt P63000); test: Ras GTP Binding Domain Inhibition Assay (Ras Superfamily Assay); details: read-out: Rac-1: % inh.
T1 construct: made in house
Method in brief: (§1)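 Binding of 100 nM fluorescent GTP (Cy3 or Cy5, 45 min, room temperature) was read after washes from plate-captured His-tagged protein. Beforehand, compounds at 20 μM or in dilution series for IC50 sat 3 h on the protein in Tris buffer pH 7.4 or 7.0 with 1% DMSO, Sos GEF optionally added for the last hour.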

KRas wild type = test: as above; details: 20 μM compound; for KRas wild type + SOS: % inh.: with SOS; for KRas wild type: % inh.: without SOS
Method in brief: as §1

KRas G12D mutant = test: as above; details: 20 μM compound; for KRas G12D mutant + SOS: % inh.: with SOS; for KRas G12D mutant: % inh.: without SOS
Method in brief: as §1

Erk1/2 phosphorylation = test: Erk1/2 Phosphorylation Assay (western blot), Panc-1; assay type: cell-based, human; details: at 10 μM, * = activation
Method in brief: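 Phospho-Erk1/2 (Thr202/Tyr204) was detected by western blot in lysates of Panc-1 cells (KRas G12D). These had 6 h, 37° C exposure to 10 μM compound or a dilution series for IC50, in 0.3% DMSO. Cells were either starved overnight in 0.5% FBS with a 15-min 1.5 ng/ml EGF pulse, or kept unstimulated in 10% FBS.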

COc1cncnc1Nc1nc(-c2nccn2C)nn2cc(-c3ccn(C)n3)c(C)c12 [Compound 107, N-(5-Methoxypyrimidin-4-yl)-5-methyl-2-(1-methyl-1H-imidazol-2-yl)-6-(1-methyl-1H-pyrazol-3-yl)pyrrolo[2,1-f][1,2,4]triazin-4-amine]
inhibition at 20 µM (Rac-1): 76 to 100%
KRas wild type + SOS: % inh. (KRas wild type): D (D = 76-100% inhibition)
KRas wild type: % inh. (KRas wild type): C (C = 50-75% inhibition)
KRas G12D mutant + SOS: % inh. (KRas G12D mutant): C (C = 50-75% inhibition)
KRas G12D mutant: % inh. (KRas G12D mutant): C (C = 50-75% inhibition)
% inh of Erk1/2 phosphorylation in Panc-1 (Erk1/2 phosphorylation): D* (85-100% activation)

Cc1c(-c2ccn(C)n2)cn2nc(-c3nccn3C)nc(Nc3cc(OCCO)ncn3)c12 [Compound 101, 2-((6-((5-Methyl-2-(1-methyl-1H-imidazol-2-yl)-6-(1-methyl-1H-pyrazol-3-yl)pyrrolo[2,1-f][1,2,4]triazin-4-yl)amino)pyrimidin-4-yl)oxy) ethan-1-ol]
inhibition at 20 µM (Rac-1): 76 to 100%
KRas wild type + SOS: % inh. (KRas wild type): B (B = 26-49% inhibition)
KRas wild type: % inh. (KRas wild type): D (D = 76-100% inhibition)
KRas G12D mutant + SOS: % inh. (KRas G12D mutant): C (C = 50-75% inhibition)
KRas G12D mutant: % inh. (KRas G12D mutant): D (D = 76-100% inhibition)
% inh of Erk1/2 phosphorylation in Panc-1 (Erk1/2 phosphorylation): A* (1-25% activation)

Cc1ccnc(Nc2nc(-c3nccn3C)nn3cc(-c4ccn(C5CC5)n4)c(C)c23)c1 [Compound 144, 6-(1-Cyclopropyl-1H-pyrazol-3-yl)-5-methyl-2-(1-methyl-1H-imidazol-2-yl)-N-(4-methylpyridin-2-yl)pyrrolo[2,1-f][1,2,4]triazin-4-amine]
inhibition at 20 µM (Rac-1): 76 to 100%
KRas wild type + SOS: % inh. (KRas wild type): D (D = 76-100% inhibition)
KRas wild type: % inh. (KRas wild type): C (C = 50-75% inhibition)
KRas G12D mutant + SOS: % inh. (KRas G12D mutant): D (D = 76-100% inhibition)
KRas G12D mutant: % inh. (KRas G12D mutant): D (D = 76-100% inhibition)
% inh of Erk1/2 phosphorylation in Panc-1 (Erk1/2 phosphorylation): A (1-25% inhibition)

Cc1c(-c2ccn(C)n2)cn2nc(-c3nccn3C)nc(Nc3cc4n(n3)CCO4)c12 [Compound 124, N-(5-Methyl-2-(1-methyl-1H-imidazol-2-yl)-6-(1-methyl-1H-pyrazol-3-yl)pyrrolo[2,1-f][1,2,4]triazin-4-yl)-2,3-dihydropyrazolo[5,1-b]oxazol-6-amine]
inhibition at 20 µM (Rac-1): 76 to 100%
KRas wild type + SOS: % inh. (KRas wild type): C (C = 50-75% inhibition)
KRas wild type: % inh. (KRas wild type): D (D = 76-100% inhibition)
KRas G12D mutant + SOS: % inh. (KRas G12D mutant): C (C = 50-75% inhibition)
KRas G12D mutant: % inh. (KRas G12D mutant): C (C = 50-75% inhibition)
% inh of Erk1/2 phosphorylation in Panc-1 (Erk1/2 phosphorylation): C* (46-84% activation)

Cc1c(-c2ccn(C)n2)cn2nc(-c3nccn3C)nc(Nc3nnco3)c12.Cl [Compound 119, N-(5-Methyl-2-(1-methyl-1H-imidazol-2-yl)-6-(1-methyl-1H-pyrazol-3-yl)pyrrolo[2,1-f][1,2,4]triazin-4-yl)-1,3,4-oxadiazol-2-amine hydrochloride salt]
inhibition at 20 µM (Rac-1): 26 to 49%
KRas wild type + SOS: % inh. (KRas wild type): A (A = 1-25% inhibition)
KRas wild type: % inh. (KRas wild type): C (C = 50-75% inhibition)
KRas G12D mutant + SOS: % inh. (KRas G12D mutant): B (B = 26-49% inhibition)
KRas G12D mutant: % inh. (KRas G12D mutant): C (C = 50-75% inhibition)
% inh of Erk1/2 phosphorylation in Panc-1 (Erk1/2 phosphorylation): A* (1-25% activation)

CO[C@H]1C[C@@H](Nc2nc(-c3nccn3C)nn3cc(-c4ccn(C)n4)c(C)c23)C1 [Compound 131, N-((1s,3s)-3-Methoxycyclobutyl)-5-methyl-2-(1-methyl-1H-imidazol-2-yl)-6-(1-methyl-1H-pyrazol-3-yl)pyrrolo[2,1-f][1,2,4]triazin-4-amine]
inhibition at 20 µM (Rac-1): 0%
KRas wild type + SOS: % inh. (KRas wild type): 0 (0 = 0% inhibition)
KRas wild type: % inh. (KRas wild type): B (B = 26-49% inhibition)
KRas G12D mutant + SOS: % inh. (KRas G12D mutant): 0 (0 = 0% inhibition)
KRas G12D mutant: % inh. (KRas G12D mutant): A (A = 1-25% inhibition)
% inh of Erk1/2 phosphorylation in Panc-1 (Erk1/2 phosphorylation): A* (1-25% activation)

Cc1c(-c2ccn(C)n2)cn2nc(-c3nccn3C)nc(Nc3ccccn3)c12 [Compound 118, 5-Methyl-2-(1-methyl-1H-imidazol-2-yl)-6-(1-methyl-1H-pyrazol-3-yl)-N-(pyridin-2-yl)pyrrolo[2,1-f][1,2,4]triazin-4-amine]
inhibition at 20 µM (Rac-1): 76 to 100%
KRas wild type + SOS: % inh. (KRas wild type): D (D = 76-100% inhibition)
KRas wild type: % inh. (KRas wild type): D (D = 76-100% inhibition)
KRas G12D mutant + SOS: % inh. (KRas G12D mutant): D (D = 76-100% inhibition)
KRas G12D mutant: % inh. (KRas G12D mutant): D (D = 76-100% inhibition)
% inh of Erk1/2 phosphorylation in Panc-1 (Erk1/2 phosphorylation): D* (85-100% activation)

Cc1c(-c2ccn(C3CC3)n2)cn2nc(-c3nccn3C)nc(Nc3cc(OC(F)F)ccn3)c12 [Compound 139, 6-(1-Cyclopropyl-1H-pyrazol-3-yl)-N-(4-(difluoromethoxy)pyridin-2-yl)-5-methyl-2-(1-methyl-1H-imidazol-2-yl)pyrrolo[2,1-f][1,2,4]triazin-4-amine]
inhibition at 20 µM (Rac-1): 76 to 100%
KRas wild type + SOS: % inh. (KRas wild type): D (D = 76-100% inhibition)
KRas wild type: % inh. (KRas wild type): D (D = 76-100% inhibition)
KRas G12D mutant + SOS: % inh. (KRas G12D mutant): D (D = 76-100% inhibition)
KRas G12D mutant: % inh. (KRas G12D mutant): D (D = 76-100% inhibition)
% inh of Erk1/2 phosphorylation in Panc-1 (Erk1/2 phosphorylation): D* (85-100% activation)

COc1ccnc(Nc2nc(-c3nccn3C)nn3cc(-c4ccn(C)n4)c(C)c23)c1 [Compound 102, N-(4-Methoxypyridin-2-yl)-5-methyl-2-(1-methyl-1H-imidazol-2-yl)-6-(1-methyl-1H-pyrazol-3-yl)pyrrolo[2,1-f][1,2,4]triazin-4-amine]
inhibition at 20 µM (Rac-1): 76 to 100%
KRas wild type + SOS: % inh. (KRas wild type): D (D = 76-100% inhibition)
KRas wild type: % inh. (KRas wild type): D (D = 76-100% inhibition)
KRas G12D mutant + SOS: % inh. (KRas G12D mutant): D (D = 76-100% inhibition)
KRas G12D mutant: % inh. (KRas G12D mutant): D (D = 76-100% inhibition)
% inh of Erk1/2 phosphorylation in Panc-1 (Erk1/2 phosphorylation): A* (1-25% activation)

COc1ccnc(Nc2nc(-c3nccn3C)nn3cc(-c4cccnc4)c(-c4cccnc4)c23)c1 [Compound 169, N-(4-methoxypyridin-2-yl)-2-(1-methyl-1H-imidazol-2-yl)-5,6-di(pyridin-3-yl)pyrrolo[2,1-f][1,2,4]triazin-4-amine]
inhibition at 20 µM (Rac-1): 76 to 100%
KRas wild type + SOS: % inh. (KRas wild type): D (D = 76-100% inhibition)
KRas wild type: % inh. (KRas wild type): D (D = 76-100% inhibition)
KRas G12D mutant + SOS: % inh. (KRas G12D mutant): D (D = 76-100% inhibition)
KRas G12D mutant: % inh. (KRas G12D mutant): D (D = 76-100% inhibition)
% inh of Erk1/2 phosphorylation in Panc-1 (Erk1/2 phosphorylation): B* (26-49% activation)
